Data: PubChem BioAssay (NCI)
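Five compound concentrations were applied to cells in 96-well plates for 48 hours; endpoints were derived by simple linear interpolation of the resulting dose-response curve. GI50 = concentration required for 50% inhibition of growth. At the TGI there is no net growth.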

Columns and labels:
Assay in all cases: NCI anticancer screen, dose series, 48 h
[1] = tested on: SF-268 CNS
[2] = tested on: SK-MEL-28 melanoma
[3] = tested on: OVCAR-5 ovarian
[4] = tested on: RPMI-8226 leukemia
[5] = tested on: NCI/ADR-RES ovarian
[6] = tested on: UACC-62 melanoma
[7] = tested on: RXF 393 renal
[8] = tested on: SF-295 CNS
[9] = tested on: SNB-75 CNS
[10] = tested on: SN12C renal
[11] = tested on: MALME-3M melanoma
[12] = tested on: SF-539 CNS
[13] = tested on: UO-31 renal
[14] = tested on: SK-MEL-5 melanoma
[15] = tested on: ACHN renal
[16] = tested on: HS 578T breast
[17] = tested on: SR leukemia
[18] = tested on: NCI-H226 lung
[19] = tested on: HL-60(TB) leukemia
[20] = tested on: OVCAR-4 ovarian
[21] = tested on: UACC-257 melanoma
[22] = tested on: COLO 205 colon
[23] = tested on: MCF7 breast
[24] = tested on: MDA-MB-435
[25] = tested on: IGROV1 ovarian
[26] = tested on: SK-OV-3 ovarian
[27] = tested on: CCRF-CEM leukemia
[28] = tested on: SNB-19 CNS
[29] = tested on: BT-549 breast
[30] = tested on: NCI-H23 lung
[31] = tested on: HOP-92 NSCLC
[32] = tested on: EKVX NSCLC
[33] = tested on: HCT-15 colon
[34] = tested on: HCT-116 colon
[35] = tested on: LOX IMVI melanoma
[36] = tested on: PC-3 prostate
[37] = tested on: NCI-H460 lung
[38] = tested on: HCC-2998 colon
[39] = tested on: M14 melanoma
[40] = tested on: DU-145 prostate
[41] = tested on: K-562 leukemia
[42] = tested on: NCI-H522 lung
[43] = tested on: TK-10 renal
[44] = tested on: CAKI-1 renal
[45] = tested on: HOP-62 NSCLC
[46] = tested on: A498 renal
[47] = tested on: OVCAR-8 ovarian
[48] = tested on: U251 CNS
[49] = tested on: 786-0 renal
[50] = tested on: KM12 colon
[51] = tested on: T-47D breast
[52] = tested on: MOLT-4 leukemia
[53] = tested on: MDA-MB-231 breast
[54] = tested on: MDA-MB-468 breast
[55] = tested on: A549 NSCLC
[56] = tested on: HT29 colon
[57] = tested on: OVCAR-3 ovarian
[58] = tested on: SW-620 colon

## Cc1ccc(/C=C/c2n(Cc3ccc4ccccc4c3)c3ccccc3[n+]2Cc2ccc3ccccc3c2)cc1
[1]
  GI50: 1.5 µM
  TGI: 3.88 µM
[2]
  GI50: 0.726 µM
  TGI: 2.01 µM
[3]
  GI50: 1.1 µM
  TGI: 2.3 µM
[4]
  GI50: 0.331 µM
  TGI: 2.3 µM
[5]
  GI50: 1.9 µM
  TGI: 4.56 µM
[6]
  GI50: 1.27 µM
  TGI: 2.56 µM
[7]
  GI50: 0.325 µM
  TGI: 1.39 µM
[8]
  GI50: 0.399 µM
  TGI: 1.66 µM
[9]
  GI50: 0.729 µM
  TGI: 2.15 µM
[10]
  GI50: 1.45 µM
  TGI: 2.79 µM
[11]
  GI50: 0.465 µM
  TGI: 1.74 µM
[12]
  GI50: 0.475 µM
  TGI: 1.71 µM
[13]
  GI50: 1.44 µM
  TGI: 2.77 µM
[14]
  GI50: 0.905 µM
  TGI: 2.11 µM
[15]
  GI50: 0.782 µM
  TGI: 2.03 µM
[16]
  GI50: 0.382 µM
  TGI: 1.74 µM

## O=C(c1ccc(Cl)cc1)c1ccc(OCCCN2CCN(c3ccncc3)CC2)cc1
[17]
  GI50: 1.7 µM
  TGI: 5.65 µM
[18]
  GI50: 4.22 µM
  TGI: 19.8 µM
[19]
  GI50: 1.46 µM
  TGI: 3.59 µM
[20]
  GI50: 5.07 µM
  TGI: 23.9 µM
[21]
  GI50: 4.04 µM
  TGI: 15.7 µM
[22]
  GI50: 1.7 µM
  TGI: 3.51 µM
[1]
  GI50: 11.6 µM
  TGI: 27.9 µM
[23]
  GI50: 1.89 µM
  TGI: 5.16 µM
[2]
  GI50: 1.99 µM
  TGI: 3.82 µM
[24]
  GI50: 3.09 µM
  TGI: 11.5 µM
[25]
  GI50: 6.59 µM
  TGI: 21 µM
[3]
  GI50: 10.5 µM
  TGI: 22.9 µM
[26]
  GI50: 5.1 µM
  TGI: 18.4 µM
[4]
  GI50: 2.38 µM
  TGI: 10 µM
[27]
  GI50: 2.7 µM
  TGI: 12.2 µM
[6]
  GI50: 1.8 µM
  TGI: 3.63 µM
[28]
  GI50: 9.11 µM
  TGI: 21.8 µM
[7]
  GI50: 0.831 µM
  TGI: 6.4 µM
[8]
  GI50: 2.04 µM
  TGI: 4.82 µM
[9]
  GI50: 3.17 µM
  TGI: 18.6 µM
[10]
  GI50: 10.9 µM
  TGI: 23.2 µM
[29]
  GI50: 2.86 µM
  TGI: 9.3 µM
[30]
  GI50: 2.89 µM
  TGI: 11.7 µM
[31]
  GI50: 1.54 µM
  TGI: 11.2 µM
[32]
  GI50: 3.62 µM
  TGI: 15.5 µM
[33]
  GI50: 1.48 µM
  TGI: 4.46 µM
[34]
  GI50: 2.17 µM
  TGI: 11.1 µM
[35]
  GI50: 1.69 µM
  TGI: 3.25 µM
[36]
  GI50: 3.4 µM
  TGI: 21.4 µM
[37]
  GI50: 4.81 µM
  TGI: 18 µM
[38]
  GI50: 3.01 µM
  TGI: 8.47 µM
[39]
  GI50: 1.77 µM
  TGI: 3.51 µM
[40]
  GI50: 10.1 µM
  TGI: 23.6 µM
[11]
  GI50: 1.79 µM
  TGI: 3.41 µM
[41]
  GI50: 1.08 µM
  TGI: 4.8 µM
[42]
  GI50: 10.3 µM
  TGI: 23.4 µM
[12]
  GI50: 1.77 µM
  TGI: 4.58 µM
[43]
  GI50: 12.3 µM
  TGI: 25.6 µM
[44]
  GI50: 4.95 µM
  TGI: 19.4 µM
[13]
  GI50: 2.36 µM
  TGI: 10.4 µM
[14]
  GI50: 1.73 µM
  TGI: 4.18 µM
[15]
  GI50: 8.94 µM
  TGI: 21.1 µM
[45]
  GI50: 5.07 µM
  TGI: 18.3 µM
[46]
  GI50: 16 µM
  TGI: 30.2 µM
[47]
  GI50: 9.52 µM
  TGI: 46.1 µM
[48]
  GI50: 3.98 µM
  TGI: 15.2 µM
[49]
  GI50: 1.69 µM
  TGI: 3.27 µM
[50]
  GI50: 4.57 µM
  TGI: 17 µM
[16]
  GI50: 6.05 µM
  TGI: 27.7 µM
[51]
  GI50: 3.22 µM
  TGI: 18.3 µM
[52]
  GI50: 2.88 µM
  TGI: 9.07 µM
[53]
  GI50: 4.32 µM
  TGI: 17.3 µM
[54]
  GI50: 1.39 µM
  TGI: 4.38 µM
[55]
  GI50: 9.41 µM
  TGI: 23.7 µM
[56]
  GI50: 1.81 µM
  TGI: 6.41 µM
[57]
  GI50: 3.9 µM
  TGI: 17.3 µM
[58]
  GI50: 2.57 µM
